System: 519858-162-T-J1-PDC complex spheroid viability
Experiment: Anticancer human tumor 519858-162-T-J1-PDC patient-derived colon adenocarcinoma cell line growth inhibition [GQUAD]
Conditions: for IC50: curve of first compound; for viability, T/C: stronger effect = lower value
Method in brief: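 Multi-cell-type spheroids of tumor cells with HUVEC and mesenchymal stem cells, treated with drug combinations. Concentrations descend in half-log steps from near clinical Cmax, or from 10 microM where Cmax is unknown; viability read-out.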

[1] = second compound 0.0316 µM, first compound 0.0316 µM
[2] = second compound 0.0316 µM, first compound 0.316 µM
[3] = second compound 0.1 µM, first compound 0.0316 µM
[4] = second compound 0.1 µM, first compound 0.316 µM
[5] = second compound 0.316 µM, first compound 0.0316 µM
[6] = second compound 0.316 µM, first compound 0.316 µM
[7] = second compound 1 µM, first compound 0.0316 µM
[8] = second compound 1 µM, first compound 0.316 µM
[9] = second compound 3.16 µM, first compound 0.0316 µM
[10] = second compound 3.16 µM, first compound 0.316 µM
[11] = second compound 10 µM, first compound 0.0316 µM
[12] = second compound 10 µM, first compound 0.316 µM
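Further: spheroids exposed to compounds for 7 days.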
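Wherever viability, T/C is given: 100% = DMSO vehicle control viability.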

CCc1c2c(nc3ccc(O)cc13)-c1cc3c(c(=O)n1C2)COC(=O)[C@]3(O)CC + Cc1[nH]c2ccc(F)cc2c1-c1nc2c3cccnc3c3ncccc3c2[nH]1
IC50 (second compound 0.0316 µM): > 0.316 µM | IC50 (second compound 0.1 µM): > 0.316 µM | IC50 (second compound 0.316 µM): > 0.316 µM | IC50 (second compound 1 µM): > 0.316 µM | IC50 (second compound 3.16 µM): > 0.316 µM | IC50 (second compound 10 µM): < 0.000999 µM | viability, T/C (second compound 0.0316 µM, first compound 0.000999 µM): 124% | viability, T/C (second compound 0.0316 µM, first compound 0.00316 µM): 86% | viability, T/C (second compound 0.0316 µM, first compound 0.00999 µM): 70.5% | viability, T/C [1]: 86.6% | viability, T/C (second compound 0.0316 µM, first compound 0.0999 µM): 56.6% | viability, T/C [2]: 62.8% | viability, T/C (second compound 0.1 µM, first compound 0.000999 µM): 85% | viability, T/C (second compound 0.1 µM, first compound 0.00316 µM): 96.9% | viability, T/C (second compound 0.1 µM, first compound 0.00999 µM): 63.7% | viability, T/C [3]: 63.2% | viability, T/C (second compound 0.1 µM, first compound 0.0999 µM): 84.2% | viability, T/C [4]: 52.9% | viability, T/C (second compound 0.316 µM, first compound 0.000999 µM): 99.9% | viability, T/C (second compound 0.316 µM, first compound 0.00316 µM): 105% | viability, T/C (second compound 0.316 µM, first compound 0.00999 µM): 60.8% | viability, T/C [5]: 53.9% | viability, T/C (second compound 0.316 µM, first compound 0.0999 µM): 63.4% | viability, T/C [6]: 59.4% | viability, T/C (second compound 1 µM, first compound 0.000999 µM): 89.8% | viability, T/C (second compound 1 µM, first compound 0.00316 µM): 75.2% | viability, T/C (second compound 1 µM, first compound 0.00999 µM): 78.2% | viability, T/C [7]: 83.6% | viability, T/C (second compound 1 µM, first compound 0.0999 µM): 54.6% | viability, T/C [8]: 62.8% | viability, T/C (second compound 3.16 µM, first compound 0.000999 µM): 68.5% | viability, T/C (second compound 3.16 µM, first compound 0.00316 µM): 53.3% | viability, T/C (second compound 3.16 µM, first compound 0.00999 µM): 47.8% | viability, T/C [9]: 61.1% | viability, T/C (second compound 3.16 µM, first compound 0.0999 µM): 80% | viability, T/C [10]: 49.9% | viability, T/C (second compound 10 µM, first compound 0.000999 µM): 39.9% | viability, T/C (second compound 10 µM, first compound 0.00316 µM): 50.2% | viability, T/C (second compound 10 µM, first compound 0.00999 µM): 69.7% | viability, T/C [11]: 56.6% | viability, T/C (second compound 10 µM, first compound 0.0999 µM): 74.5% | viability, T/C [12]: 76.2%

COc1cc(C2c3cc4c(cc3C(OC3OC5COC(C)OC5C(O)C3O)C3COC(=O)C23)OCO4)cc(OC)c1O (centres undefined) + Cc1[nH]c2ccc(F)cc2c1-c1nc2c3cccnc3c3ncccc3c2[nH]1
IC50 (second compound 0.0316 µM): > 10 µM | IC50 (second compound 0.1 µM): > 10 µM | IC50 (second compound 0.316 µM): > 10 µM | IC50 (second compound 1 µM): > 10 µM | IC50 (second compound 3.16 µM): > 10 µM | IC50 (second compound 10 µM): > 10 µM | viability, T/C [1]: 114% | viability, T/C (second compound 0.0316 µM, first compound 0.1 µM): 99.6% | viability, T/C [2]: 93.8% | viability, T/C (second compound 0.0316 µM, first compound 1 µM): 124% | viability, T/C (second compound 0.0316 µM, first compound 3.16 µM): 98.2% | viability, T/C (second compound 0.0316 µM, first compound 10 µM): 64.6% | viability, T/C [3]: 127% | viability, T/C (second compound 0.1 µM, first compound 0.1 µM): 130% | viability, T/C [4]: 93.2% | viability, T/C (second compound 0.1 µM, first compound 1 µM): 89.8% | viability, T/C (second compound 0.1 µM, first compound 3.16 µM): 55.6% | viability, T/C (second compound 0.1 µM, first compound 10 µM): 60.4% | viability, T/C [5]: 90.6% | viability, T/C (second compound 0.316 µM, first compound 0.1 µM): 109% | viability, T/C [6]: 57.4% | viability, T/C (second compound 0.316 µM, first compound 1 µM): 86.5% | viability, T/C (second compound 0.316 µM, first compound 3.16 µM): 86.9% | viability, T/C (second compound 0.316 µM, first compound 10 µM): 78.4% | viability, T/C [7]: 88.8% | viability, T/C (second compound 1 µM, first compound 0.1 µM): 75.8% | viability, T/C [8]: 108% | viability, T/C (second compound 1 µM, first compound 1 µM): 75.9% | viability, T/C (second compound 1 µM, first compound 3.16 µM): 81% | viability, T/C (second compound 1 µM, first compound 10 µM): 71.4% | viability, T/C [9]: 65.9% | viability, T/C (second compound 3.16 µM, first compound 0.1 µM): 76.9% | viability, T/C [10]: 66.9% | viability, T/C (second compound 3.16 µM, first compound 1 µM): 75% | viability, T/C (second compound 3.16 µM, first compound 3.16 µM): 58.6% | viability, T/C (second compound 3.16 µM, first compound 10 µM): 80.3% | viability, T/C [11]: 69.4% | viability, T/C (second compound 10 µM, first compound 0.1 µM): 63.4% | viability, T/C [12]: 65.8% | viability, T/C (second compound 10 µM, first compound 1 µM): 68.5% | viability, T/C (second compound 10 µM, first compound 3.16 µM): 74.8% | viability, T/C (second compound 10 µM, first compound 10 µM): 82.7%

From PubChem BioAssay AID2060507 (Molecular Pharmacology Branch, DTP, NCI, 2025)
